“Also recorded” adds a separate entry of the source.
Legend:
[1] = test system: human fibroblasts derived from a young donor; experiment: Aging-specific marker SA-Gal in human fibroblasts; type: cell-based
SHSY5 cells = experiment: Cell aging of SHSY5 cells (nuclear membrane staining, qPCR); type: cell-based, human
From the text: A decrease in Lamin B1 (LMNB1) mRNA (FIG. 12B), an increase in aging marker p16 mRNA (FIG. 12C) and a […] in aging marker p21 mRNA were detected by qPCR (mean±SEM, n=4, *p<0.01.) (FIG. 12D). That is, also in SHSY5 (immortalized cell line of human nervous system), a breakdown of the nuclear membrane was observed by the addition of KU60019.

[2] = test system: PARK4-iPS cell-derived DAN; experiment: Cell loss of PARK4-iPS cell-derived DAN (TH antibody); type: cell-based, human
From the text: Since KU-60019 accelerates neural differentiation from human iPS cells and cell aging, it was verified whether the culture period required for phenotypic detection in DAN differentiated from Parkinson's disease-iPS cells could be shortened by the addition of KU-60019 to a conventional culture method. The culture periods required until phenotypic detection in the case of addition of KU-60019 and in the case of non-addition of KU-60019 were compared using iPS cells established from a patient with typical PARK 4 (α-synuclein duplication), which develops at a relatively old age (50s and beyond) among hereditary Parkinson's diseases. (1) After performing the differentiation induction of PARK4-iPS cell-derived DAN using the same method as in Example 2(2), the cell loss of DAN was analyzed on days 7 and 10 using a TH antibody.

[3] = test system: nerve cells induced from human iPS cells; experiment: GFP-Synapsin fluorescent reporter screening for nerve cell maturation; type: cell-based; settings: for acceleration of cell maturation: human iPS cell-derived neurons, same manner as in Example 1
Procedure: (1) A nerve cell cluster (Neurosphere) containing neural stem cells was prepared in suspension culture from iPS cells, passaged six times, and differentiated into nerves. A mature nerve cell-specific fluorescent reporter (GFP-Synapsin) was introduced using a lentiviral vector. Thereafter, the culture was switched to adherent culture, and 10 μM each of the low-molecular compound library (Sigma Aldrich) was added to the culture medium for neural differentiation, and the culture was performed for 17 days. The fluorescence intensity of GFP-Synapsin was quantified using an imaging cytometer (In cell analyzer). Using an astrocyte conditioned medium (ACM), which accelerates neural differentiation, as a control, compounds showing a fluorescence intensity closer to the control were selected (FIG. 1 and FIG. 2).

[4] = test system: iPS cell-derived nerve cells (DAN); experiment: Intracellular NAD+ concentration by colorimetric method; type: cell-based, human; settings: cells recovered after 10 days
Procedure: (3) The differentiation induction of DAN was performed using the same method as in (2), the cells were recovered after 10 days, and the intracellular NAD^+ concentration was measured using a colorimetric method (FIG. 7).

[5] = test system: human iPS cells differentiated into dopaminergic nerve cells; experiment: Quantification of Nestin-positive cells during dopaminergic neural differentiation; type: cell-based; settings: 1, 5 or 10 μM, culture for 10 days
Procedure: (§1) (1) When neural differentiation of human iPS cells into dopaminergic nerve cells was performed, KU-60019 was added to the neural differentiation medium at 1, 5 or 10 μM, followed by culture for 10 days, and the cells expressing Nestin, which is a marker of undifferentiated nervous system, were quantified to evaluate the differentiation efficiency (the culture conditions are shown in FIG. 3).

DAN from human iPS cells [6] = experiment: γH2AX (Ser139) immunostaining of iPS cell-derived DAN; type: cell-based; settings: day 7
Procedure: (2) The differentiation induction of DAN from human iPS cells was performed using the same method as in Example 2(2), and immunostaining using a γH2AX (Ser139) antibody was performed on day 7 (FIGD. 8-D-F).

[7] = test system: dopaminergic neurons (DAN) differentiated from human iPS cells; experiment: Quantification of tyrosine hydroxylase (TH) positive cells (DAN); type: cell-based; settings: 1, 5 or 10 μM
Procedure: as §1, with “3). […] (2) In order to compare the amounts of dopaminergic neurons (DAN) differentiated by the same method as in (1), the quantification of tyrosine hydroxylase (TH) positive cells, which is a specific marker of mature DAN, was performed (FIG. 6).” for “3).”

[8] = test system: human fibroblasts derived from a young donor; experiment: Aging-specific nuclear membrane abnormalities in human fibroblasts (Lamin B1, Lamin A/C); type: cell-based
From the text: The proportion of cells showing normal nuclear membrane structure in fibroblasts derived from a young donor was reduced by the action of KU60019 (mean±SEM, n=6, *p<0.01.) (FIG. 10B). In fibroblasts collected from an old donor, when compared with human fibroblasts collected from a young donor, a decrease in Lamin B1, which is a nuclear membrane marker, as an aging-specific nuclear membrane abnormality is observed.

DAN from human iPS cells [9] = experiment: Lamin B1 immunostaining of iPS cell-derived DAN; type: cell-based; settings: day 7
Procedure: (1) The differentiation induction of DAN from human iPS cells was performed using the same method as in Example 2(2), and immunostaining using a Lamin B1 antibody was performed on day 7 (FIGS. 8-A-C).

Structure (SMILES)	SA-Gal positive cells [1]	SA-Gal intensity ([1]; n=6, p<0.01)	aging-specific nuclear membrane abnormalities (SHSY5 cells; SHSY5 cells, Lamin B1 / Lamin A/C staining)	Lamin B1 (LMNB1) mRNA (SHSY5 cells; qPCR, n=4, p<0.01)	aging marker p16 mRNA (SHSY5 cells; qPCR, n=4, p<0.01)	cell loss of DAN compared to normal control cells ([2]; day 7 of culture)	cell loss of DAN compared to normal control cells ([2]; day 10 of culture)	culture time until Parkinson's disease phenotype is detected ([2]; nerve cells derived from iPS cells of a Parkinson's disease patient) [days]	fluorescence intensity of GFP-Synapsin ([3]; 10 μM, 17 days culture, compound library screening)	acceleration of cell maturation [3]	intracellular NAD+ concentration [4]	amount of Nestin-positive cells [5]	γH2AX accumulation (DNA damage) (DAN from human iPS cells [6])	TH positive cells (DAN) ([7]; culture continued to day 10)	TH positive cells (DAN) ([7]; day 7 of culture)	aging-specific nuclear membrane abnormality (Lamin B1) ([8]; fibroblasts derived from a young donor)	proportion of cells showing normal nuclear membrane structure ([8]; fibroblasts derived from a young donor, n=6, p<0.01)	Lamin B1 (nuclear membrane marker) ([8]; young donor-derived fibroblasts, added for 72 hours)	structure of Lamin B1 (nuclear membrane) (DAN from human iPS cells [9])
C[C@@H]1CN(CC(=O)Nc2ccc3c(c2)Cc2cccc(-c4cc(=O)cc(N5CCOCC5)o4)c2S3)C[C@H](C)O1 [KU-60019]	increased to a level equivalent to that in fibroblasts derived from an old donor	increased similarly	aging-specific nuclear membrane abnormalities were caused	decrease	increase; also recorded: significantly elevated	no significant increase in cell loss	lost cells significantly increased	7	highest fluorescence intensity among the compounds selected	acceleration of cell maturation was observed	decreased depending on the concentration	decreased depending on the concentration	accumulated in the nucleus	this difference disappeared	increased depending on the concentration	reduction of Lamin B1	reduced	a decrease in Lamin B1 was found	degraded
O=c1cc(-c2cccc3c2Sc2ccccc2S3)oc(N2CCOCC2)c1 [KU55933]										only in the cells to which KU60019 was added									
O=c1cc(N2CCOCC2)oc2c(-c3cccc4c3sc3ccccc34)cccc12 [NU7441]										only in the cells to which KU60019 was added									

Reference: US12258578B2, “Agent for accelerating maturation or aging of cells” (JUNTENDO EDUCATIONAL FOUNDATION, priority 2019, dated 2025)
